Measurements published in patent US11235015B2, “Antiviral Traditional Chinese Medicine composition and preparation method and use i'hereof” (priority 2017, dated 2022).
In brackets after ≈: the same amount, converted by molar mass. Where a name gives a salt, the structure may show the parent alone.

Tests used:
[1] = system: avian influenza virus H7N7; test: microbe, parasite or virus in culture; assay type: cell-based; settings: H7N7, MDCK; for OD value (A): MTT; for inhibition at 39.06 µg/mL / inhibition at 78.12 µg/mL / inhibition at 156.25 µg/mL / IC50: unidentified influenza virus; for inhibition at 39.06 µg/mL / inhibition at 78.12 µg/mL / inhibition at 156.25 µg/mL: H7N7; for IC50: H7N7 virus, MDCK cells
[2] = system: dry yeast induced fever in rats; test: Antipyretic effect, dry yeast induced fever in rats, rectal temperature; assay type: in vivo, SD rats
[3] = system: avian influenza virus H9N2; test: microbe, parasite or virus in culture; assay type: cell-based; settings: H9N2, MDCK; for OD value (A): MTT; for inhibition at 39.06 µg/mL / inhibition at 78.12 µg/mL / inhibition at 156.25 µg/mL / IC50: Influenza A virus; for inhibition at 39.06 µg/mL / inhibition at 78.12 µg/mL / inhibition at 156.25 µg/mL: H9N2; for IC50: H9N2 virus, MDCK cells
MDCK cells = test: Toxicity of the tested substance on MDCK cells, MTT method; settings: OD 570 nm, 3 days
[4] = 39.06 μg/ml, first of 2 experiments
[5] = 39.06 μg/ml, second of 2 experiments
[6] = 78.12 μg/ml, first of 2 experiments
[7] = 78.12 μg/ml, second of 2 experiments
[8] = 156.25 μg/ml, first of 2 experiments
[9] = 156.25 μg/ml, second of 2 experiments

With `NC12CC3CC(CC(C3)C1)C2` [Adamantanamine, amantadine hydrochloride] the “OD value (A)” value [1, 4] was 0.55 ± 0.04 A, the “OD value (A)” value [1, 5] was 0.57 ± 0.07 A and the “OD value (A)” value [1, 6] was 0.86 ± 0.08 A. For the same molecule, the “OD value (A)” value [1, 7] was 0.81 ± 0.04 A, the “OD value (A)” value [1, 8] was 1.01 ± 0.07 A and the “OD value (A)” value [1, 9] was 0.98 ± 0.09 A. The inhibition at 39.06 µg/mL [1, 4] was 36%, the inhibition at 39.06 µg/mL [1, 5] was 38% and the inhibition at 78.12 µg/mL [1, 6] was 60%. For the same molecule, the inhibition at 78.12 µg/mL [1, 7] was 55%, the inhibition at 156.25 µg/mL [1, 8] was 71% and the inhibition at 156.25 µg/mL [1, 9] was 68%. The IC50 ([1]; first of 2 experiments) was 62 µg/mL and the IC50 ([1]; second of 2 experiments) was 66 µg/mL.
In the case of `CC(=O)Oc1ccccc1C(=O)O` [Aspirin], the rectal temperature ([2]; 100 mg/kg by gavage 0.5 h and […] after pyrogen, baseline value, 1 h before the injection of pyrogen, n = 5) is reported as 37.8 °C, the rectal temperature ([2]; 100 mg/kg by gavage, 1 h after the injection of pyrogen) is reported as 38.0 °C and the rectal temperature ([2]; 100 mg/kg by gavage, 2 h after the injection of pyrogen) is reported as 37.5 °C. For the same molecule, the rectal temperature ([2]; 100 mg/kg by gavage, 3 h after the injection of pyrogen) was 37.7 °C, the rectal temperature ([2]; 100 mg/kg by gavage, 4 h after the injection of pyrogen) was 37.8 °C and the rectal temperature ([2]; 100 mg/kg by gavage, 5 h after the injection of pyrogen) was 38.1 °C. The rectal temperature ([2]; 100 mg/kg by gavage, 6 h after the injection of pyrogen) was 38.1 °C, the rectal temperature ([2]; 100 mg/kg by gavage, 7 h after the injection of pyrogen) was 38.3 °C and the rectal temperature ([2]; 100 mg/kg by gavage, 8 h after the injection of pyrogen) was 38.5 °C. For the same molecule, the rectal temperature ([2]; 100 mg/kg by gavage, 9 h after the injection of pyrogen) was 38.8 °C and the “time for which the effect of reducing the body temperature was maintained” value ([2]; 100 mg·kg^−1, starting from […] after the injection of the pyrogen) was 4 h.
With `NC12CC3CC(CC(C3)C1)C2` [amantadine] the “OD value (A)” value [3, 4] was 0.37 ± 0.02 A, the “OD value (A)” value [3, 5] was 0.32 ± 0.03 A and the “OD value (A)” value [3, 6] was 0.64 ± 0.05 A. The “OD value (A)” value [3, 7] was 0.46 ± 0.03 A, the “OD value (A)” value [3, 8] was 0.71 ± 0.07 A and the “OD value (A)” value [3, 9] was 0.68 ± 0.15 A. For the same molecule, the inhibition at 39.06 µg/mL [3, 4] was 34%, the inhibition at 39.06 µg/mL [3, 5] was 27% and the inhibition at 78.12 µg/mL [3, 6] was 65%. It also gave an inhibition at 78.12 µg/mL [3, 7] of 42%, an inhibition at 156.25 µg/mL [3, 8] of 72% and an inhibition at 156.25 µg/mL [3, 9] of 66%. The IC50 ([3]; first of 2 experiments) was 63 µg/mL (≈ 417 µM), the IC50 ([3]; second of 2 experiments) was 66 µg/mL (≈ 436 µM) and the “OD value (A)” value (MDCK cells; 39.06 μg/ml) was 1.20 ± 0.04 A. For the same molecule, the “OD value (A)” value (MDCK cells; 78.12 μg/ml) was 1.05 ± 0.02 A and the “OD value (A)” value (MDCK cells; 156.25 μg/ml) was 0.96 ± 0.05 A.
